Measurements published in patent EP0359529B1, “Method for the control of pneumocystis carinii” (Merck & Co., Inc., priority 1988, dated 1990).
Numbered stars: 1 amine (or outer) side, 2 acyl side, 3 side chain; on linkers, the order of the positions; unused ones are H or OH. Bridge positions count the residues as written; N and C are the ends. Square brackets hold non-standard residues; d marks the D form. Peptide text beside a SMILES is read from it. * marks the point of attachment. ξ: configuration not given here. ξOrn(4R-OH,5R-OH) = O=C(C(C[C@@H](O)[C@@H](O)N[*:3])N[*:1])[*:2]; ξhTyr(3S-OH,4S-OH) = NC(C(=O)O)[C@H](O)[C@@H](O)c1ccc(O)cc1; ξOrn(4,5-diOH) = O=C(C(CC(O)C(O)N[*:3])N[*:1])[*:2]; ξhTyr(βξ-OH,γξ-OH) = NC(C(=O)O)C(O)C(O)c1ccc(O)cc1; Benzoyl(4-octyloxy) = CCCCCCCCOc1ccc(C(=O)*)cc1; X3 = C[C@H]1CN([*:1])C(C(=O)[*:2])[C@H]1O; ξPro(3ξ-OH,4ξ-Me) = CC1CNC(C(=O)O)C1O; X2 = NC(=O)CC(O)C(N[*:1])C(=O)[*:2]; ξPro(4R-OH) = O=C(O)C1C[C@@H](O)CN1; X1 = CCC(C)CC(C)CCCCCCCCC(=O)*; Hyp = O=C(O)[CH]1C[CH](O)CN1; ξT = CC(O)C(N)C(=O)O

Experiments:
P. carinii [1] = assay: Similar immunosuppressed rat study, 7 day treatment, cysts per lung counted; assay type: in vivo; settings: immunosuppressed rats; 2 mg/kg injected twice daily for 7 days; vehicle 10% DMSO
Description: A similar rat study was conducted to determine the antipneumocystis activity of 1-[(4R,5R)-4,5-dihydroxy-N²-[4-(octyloxy)benzoyl]-L-ii ornithine]echinocandin B (Compound IBii). After 6 weeks of immunosuppression the rats were injected twice daily for 7 days with vehicle alone. Compound IBii (2 mg/kg) or Compound IA (2 mg/kg) during which time immunosuppression was continued. At the end of the treatment period the animals were sacrificed and the number of cysts per lung determined. Compound IA reduced the number of cysts by >99% while Compound IBii reduced the cyst counts by approximately 84% (compared to the vehicle control, 10% DMSO).

P. carinii [2] = assay: Immunosuppressed rat study of P. carinii infection, two week treatment, lung cysts and parasite nuclei counted; assay type: in vivo, Sprague-Dawley rats; settings: dexamethasone-immunosuppressed rats; two weeks treatment; Compound IA 2 mg i.p. twice daily; TMP-SMZ in drinking water (208 mg TMP and 1.040 g SMZ/liter); controls 3.2 x 10⁸ - 1.5 x 10⁹
Description: In a representative study employing Compound IA in rats, nine male Sprague-Dawley rats weighing approximately 200 grams each, were immunosupressed by the addition of dexamethasone to the drinking water (2.0 mg/liter) for six weeks to induce the development of P. carinii infections. To enhance the infection the rats were also maintained on a low protein diet. At the beginning of the seventh week the rats were divided into three groups of three rats each. All three groups continued to receive dexamethasone in the drinking water and low protein diet throughout the remainder of the study. The rats in Group I were kept as untreated infected controls, those in Group II were injected intraperitoneally twice daily for two weeks with 0.5 ml of sterile dH₂O containing 2 mg of Compound IA, and those in Group III were treated with trimethoprim-sulfamethoxazole (TMP-SMZ) in the drinking water (208 mg TMP and 1.040 g of SMZ/liter) for two weeks, a known treatment for P. carinii infections. Two rats died early in the experiment. One was from group II (rat 72A) and the other from group III (rat 75A). It was not determined whether they died from Pneumocystis pneumonia. At the end of the two week treatment period (a total of eight weeks of immonosuppression) the animals were sacrificed and the lung tissue removed. […]

| Compound | reduction of the number of cysts per lung compared to the vehicle control (P. carinii [1]) | number of cysts in the lungs (P. carinii [2]) |
| --- | --- | --- |
| CCCCCCCCOc1ccc(C(=O)NC2C[C@@H](O)[C@@H](O)NC(=O)C3[C@@H](O)[C@@H](C)CN3C(=O)C(C(C)O)NC(=O)C([C@H](O)[C@@H](O)c3ccc(O)cc3)NC(=O)C3C[C@@H](O)CN3C(=O)C(C(C)O)NC2=O)cc1 (stereo partly drawn) [Compound IBii, 1-[(4R,5R)-4,5-dihydroxy-N²-[4-(octyloxy)benzoyl]-L-ornithine]echinocandin B] ({Benzoyl(4-octyloxy)}-[ξOrn(4R-OH,5R-OH)][ξT][ξPro(4R-OH)][ξhTyr(3S-OH,4S-OH)][ξT][X3]; lactam 1-C) | approximately 84% | – |
| CCC(C)CC(C)CCCCCCCCC(=O)NC1CC(O)C(O)NC(=O)C2C(O)C(C)CN2C(=O)C(C(O)CC(N)=O)NC(=O)C(C(O)C(O)c2ccc(O)cc2)NC(=O)C2CC(O)CN2C(=O)C(C(C)O)NC1=O (stereo not drawn) [Compound IA] (X1-[ξOrn(4,5-diOH)]T[Hyp][ξhTyr(βξ-OH,γξ-OH)][X2][ξPro(3ξ-OH,4ξ-Me)]; lactam 1-C; configuration not given here) | > 99% | No cysts could be found |
